Test results taken from patent publication US20100068545A1, “Compositions and methods for wood preservation” (priority 2005, published 2010).

Tests used:
termites = experiment: AWPA E7-01 field stake test, termite ratings, Gainesville, Florida; type: in vivo; set-up: scale not given here
Procedure: (§1) Preservative treating solutions were prepared by the mixing the concentrates in Example 1 with ethanol. The treated stakes were installed in Gainesville, Fla. for field performance evaluation following the procedure described in American Wood Preservers' Association (AWPA) Standard E7-01: “Standard Method of Evaluating Wood Preservatives by Field Tests with Stakes”.
(§2) Preservative treating solutions were prepared by the mixing the concentrates in Example 1 with toluene. The treated stakes were installed in Gainesville, Fla. for field performance evaluation following the procedure described in American Wood Preservers' Association (AWPA) Standard E7-01: “Standard Method of Evaluating Wood Preservatives by Field Tests with Stakes”.
Preservative treating solutions were prepared by the mixing the concentrates in Example 2 and 13. The treated stakes were installed in Gainesville, Fla. for field performance evaluation following the procedure described in American Wood Preservers' Association (AWPA) Standard E7-01: “Standard Method of Evaluating Wood Preservatives by Field Tests with Stakes”.
Preservative treating solutions were prepared by the mixing the concentrates in Example 1 with white spirits. The treated stakes were installed in Gainesville, Fla. for field performance evaluation following the procedure described in American Wood Preservers' Association (AWPA) Standard E7-01: “Standard Method of Evaluating Wood Preservatives by Field Tests with Stakes”.

decay fungi = experiment: AWPA E7-01 field stake test, decay ratings, Gainesville, Florida; type: in vivo; set-up: scale not given here
Procedure: as §1, §2
Preservative treating solutions were prepared by the mixing the concentrates in Example 2 and 13. The treated stakes were installed in Gainesville, Fla. for field performance evaluation following the procedure described in American Wood Preservers' Association (AWPA) Standard E7-01: “Standard Method of Evaluating Wood Preservatives by Field Tests with Stakes”. […]

brown rots or white rots = experiment: Accelerated decay testing in the lab; conditions: pyrethroid insecticide alone
Description: Provided herein is an organic composition and method for use thereof in treatment of cellulosic material, more particularly wood. The composition comprises an azole or quaternary ammonium fungicide compound, and a pyrethroid insecticide. The composition imparts to the treated wood resistance to both fungi and insects. […] This has been confirmed by accelerated decay testing in the lab.

[1] = 12 months, retention 0.32 kg/m^3, Ex. 14, ethanol solution
[2] = 12 months, retention 0.32 kg/m^3, Ex. 15, toluene solution
[3] = 12 months, retention 0.32 kg/m^3, Ex. 16, concentrates of Ex. 2 and 13
[4] = 12 months, retention 0.48 kg/m^3, Ex. 14, ethanol solution
[5] = 12 months, retention 0.48 kg/m^3, Ex. 15, toluene solution
[6] = 12 months, retention 0.48 kg/m^3, Ex. 16, concentrates of Ex. 2 and 13
[7] = 12 months, retention 0.64 kg/m^3, Ex. 14, ethanol solution
[8] = 12 months, retention 0.64 kg/m^3, Ex. 15, toluene solution
[9] = 12 months, retention 0.64 kg/m^3, Ex. 16, concentrates of Ex. 2 and 13
[10] = 24 months, retention 0.32 kg/m^3, Ex. 14, ethanol solution
[11] = 24 months, retention 0.32 kg/m^3, Ex. 15, toluene solution
[12] = 24 months, retention 0.32 kg/m^3, Ex. 16, concentrates of Ex. 2 and 13
[13] = 24 months, retention 0.48 kg/m^3, Ex. 14, ethanol solution
[14] = 24 months, retention 0.48 kg/m^3, Ex. 15, toluene solution
[15] = 24 months, retention 0.48 kg/m^3, Ex. 16, concentrates of Ex. 2 and 13
[16] = 24 months, retention 0.64 kg/m^3, Ex. 14, ethanol solution
[17] = 24 months, retention 0.64 kg/m^3, Ex. 15, toluene solution
[18] = 24 months, retention 0.64 kg/m^3, Ex. 16, concentrates of Ex. 2 and 13
[19] = 36 months, retention 0.32 kg/m^3, Ex. 14, ethanol solution
[20] = 36 months, retention 0.32 kg/m^3, Ex. 15, toluene solution
[21] = 36 months, retention 0.32 kg/m^3, Ex. 16, concentrates of Ex. 2 and 13
[22] = 36 months, retention 0.48 kg/m^3, Ex. 14, ethanol solution
[23] = 36 months, retention 0.48 kg/m^3, Ex. 15, toluene solution
[24] = 36 months, retention 0.48 kg/m^3, Ex. 16, concentrates of Ex. 2 and 13
[25] = 36 months, retention 0.64 kg/m^3, Ex. 14, ethanol solution
[26] = 36 months, retention 0.64 kg/m^3, Ex. 15, toluene solution
[27] = 36 months, retention 0.64 kg/m^3, Ex. 16, concentrates of Ex. 2 and 13
[28] = 48 months, retention 0.32 kg/m^3, Ex. 14, ethanol solution
[29] = 48 months, retention 0.32 kg/m^3, Ex. 15, toluene solution
[30] = 48 months, retention 0.32 kg/m^3, Ex. 16, concentrates of Ex. 2 and 13
[31] = 48 months, retention 0.48 kg/m^3, Ex. 14, ethanol solution
[32] = 48 months, retention 0.48 kg/m^3, Ex. 15, toluene solution
[33] = 48 months, retention 0.48 kg/m^3, Ex. 16, concentrates of Ex. 2 and 13
[34] = 48 months, retention 0.64 kg/m^3, Ex. 14, ethanol solution
[35] = 48 months, retention 0.64 kg/m^3, Ex. 15, toluene solution
[36] = 48 months, retention 0.64 kg/m^3, Ex. 16, concentrates of Ex. 2 and 13

CC(C)(C)C(O)(CCc1ccc(Cl)cc1)Cn1cncn1 (racemic) [Tebuconazole, (RS)-1-p-chlorophenyl-4,4-dimethyl-3-(1H-1,2,4-triazol-1-ylmethyl)pentan-3-ol]
Average Termite Rating (termites; [1]): 4.2 | Average Termite Rating (termites; [2]): 4.2 | Average Termite Rating (termites; [3]): 4.2 | Average Termite Rating (termites; [4]): 4.5 | Average Termite Rating (termites; [5]): 4.5 | Average Termite Rating (termites; [6]): 4.5 | Average Termite Rating (termites; [7]): 4.8 | Average Termite Rating (termites; [8]): 4.8 | Average Termite Rating (termites; [9]): 4.8 | Average Termite Rating (termites; [10]): 0.6 | Average Termite Rating (termites; [11]): 0.6 | Average Termite Rating (termites; [12]): 0.6 | Average Termite Rating (termites; [13]): 1.2 | Average Termite Rating (termites; [14]): 1.2 | Average Termite Rating (termites; [15]): 1.2 | Average Termite Rating (termites; [16]): 2.0 | Average Termite Rating (termites; [17]): 2.0 | Average Termite Rating (termites; [18]): 2.0 | Average Termite Rating (termites; [19]): 0.0 | Average Termite Rating (termites; [20]): 0.0 | Average Termite Rating (termites; [21]): 0.0 | Average Termite Rating (termites; [22]): 0.0 | Average Termite Rating (termites; [23]): 0.0 | Average Termite Rating (termites; [24]): 0.0 | Average Termite Rating (termites; [25]): 0.0 | Average Termite Rating (termites; [26]): 0.0 | Average Termite Rating (termites; [27]): 0.0 | Average Termite Rating (termites; [28]): 0.0 | Average Termite Rating (termites; [29]): 0.0 | Average Termite Rating (termites; [30]): 0.0 | Average Termite Rating (termites; [31]): 0.0 | Average Termite Rating (termites; [32]): 0.0 | Average Termite Rating (termites; [33]): 0.0 | Average Termite Rating (termites; [34]): 0.0 | Average Termite Rating (termites; [35]): 0.0 | Average Termite Rating (termites; [36]): 0.0 | Average Decay Rating (decay fungi; [1]): 8.2 | Average Decay Rating (decay fungi; [2]): 8.2 | Average Decay Rating (decay fungi; [3]): 8.2 | Average Decay Rating (decay fungi; [4]): 5.8 | Average Decay Rating (decay fungi; [5]): 5.8 | Average Decay Rating (decay fungi; [6]): 5.8 | Average Decay Rating (decay fungi; [7]): 8.7 | Average Decay Rating (decay fungi; [8]): 8.7 | Average Decay Rating (decay fungi; [9]): 8.7 | Average Decay Rating (decay fungi; [10]): 2.6 | Average Decay Rating (decay fungi; [11]): 2.6 | Average Decay Rating (decay fungi; [12]): 2.6 | Average Decay Rating (decay fungi; [13]): 0.8 | Average Decay Rating (decay fungi; [14]): 0.8 | Average Decay Rating (decay fungi; [15]): 0.8 | Average Decay Rating (decay fungi; [16]): 1.2 | Average Decay Rating (decay fungi; [17]): 1.2 | Average Decay Rating (decay fungi; [18]): 1.2 | Average Decay Rating (decay fungi; [19]): 0.0 | Average Decay Rating (decay fungi; [20]): 0.0 | Average Decay Rating (decay fungi; [21]): 0.0 | Average Decay Rating (decay fungi; [22]): 0.0 | Average Decay Rating (decay fungi; [23]): 0.0 | Average Decay Rating (decay fungi; [24]): 0.0 | Average Decay Rating (decay fungi; [25]): 0.0 | Average Decay Rating (decay fungi; [26]): 0.0 | Average Decay Rating (decay fungi; [27]): 0.0 | Average Decay Rating (decay fungi; [28]): 0.0 | Average Decay Rating (decay fungi; [29]): 0.0 | Average Decay Rating (decay fungi; [30]): 0.0 | Average Decay Rating (decay fungi; [31]): 0.0 | Average Decay Rating (decay fungi; [32]): 0.0 | Average Decay Rating (decay fungi; [33]): 0.0 | Average Decay Rating (decay fungi; [34]): 0.0 | Average Decay Rating (decay fungi; [35]): 0.0 | Average Decay Rating (decay fungi; [36]): 0.0

Cc1c(COC(=O)[C@@H]2[C@H](/C=C(\Cl)C(F)(F)F)C2(C)C)cccc1-c1ccccc1 (racemic) [bifenthrin]
Fungicidal activity against brown rots or white rots (brown rots or white rots): generally do not have fungicidal activity

CC1(C)C(C=C(Cl)Cl)C1C(=O)OC(C#N)c1cccc(Oc2ccccc2)c1 (stereo not drawn) [cypermethrin]
Fungicidal activity against brown rots or white rots (brown rots or white rots): generally do not have fungicidal activity

CC1(C)C(C=C(Cl)Cl)C1C(=O)OCc1cccc(Oc2ccccc2)c1 (stereo not drawn) [permethrin]
Fungicidal activity against brown rots or white rots (brown rots or white rots): generally do not have fungicidal activity
